Results as given in patent US10610520B2, “Heterocyclic compound” (Takeda Pharmaceutical Company Limited, priority 2016, dated 2020).

Molecular target: T1, His-hMAGL (recombinant polyhistidine tagged human MAGL protein) (Homo sapiens, UniProt Q99685)
T1 construct: made in house; host or cells: E. coli BL21(DE3)
T1 sequence (Q99685 1-303): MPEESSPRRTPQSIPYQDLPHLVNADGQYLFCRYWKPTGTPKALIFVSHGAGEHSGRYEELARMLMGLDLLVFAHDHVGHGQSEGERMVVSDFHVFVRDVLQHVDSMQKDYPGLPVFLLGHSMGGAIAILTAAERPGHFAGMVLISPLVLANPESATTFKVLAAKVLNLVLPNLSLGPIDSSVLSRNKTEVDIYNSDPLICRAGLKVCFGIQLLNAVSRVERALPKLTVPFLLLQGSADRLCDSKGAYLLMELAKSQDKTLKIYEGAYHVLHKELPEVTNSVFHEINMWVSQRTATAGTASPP
Test: Measurement of MAGL inhibitory activity (arachidonic acid production from 2-arachidonylglycerol, RapidFire-mass spectrometry)
Assay type: biochemical
Settings: MAGL inhibitory rate, test compound 10 μM, 60 min preincubation, 2-arachidonylglycerol substrate
Procedure: The His-hMAGL obtained above was diluted with enzyme reaction buffer (10 mM Tris-HCl, pH 7.5, 1 mM EDTA, 0.025 (w/v) % Triton X-100, 0.01% Bovine serum albumin) to a concentration of 7.5 ng/mL. […] Thereafter, to each well was added 5 μL of 150 μM 2-arachidonylglycerol (Tocris Bioscience), and the mixture was incubated at room temperature for 10 min. Then, 10 μL of 2% formic acid (Wako Pure Chemical Industries, Ltd.) was added to stop the reaction. Furthermore, acetonitrile (50 μL) containing 3 μM arachidonic acid-d8 (Cayman Chemical Company) was added and the mixture was stirred.
The amount of arachidonic acid in the obtained enzyme reaction mixture was calculated by measuring by RapidFire-mass spectrometry and correcting by the amount of arachidonic acid-d8. High Throughput online solid phase extraction was performed using RapidFire 300™ system (Agilent Technologies, Inc.). Samples were loaded on SPE C4 cartridge (Agilent Technologies, Inc.) and desalted with 0.2 (v/v) % acetic acid (Wako Pure Chemical Industries, Ltd.) in ultrapure water/acetonitrile (70/30, v/v) at a flow rate of 1.5 mL/min, eluted at a flow rate of 0.5 mL/min with 0.2 (v/v) % acetic acid dissolved in acetonitrile/ultrapure water (90/10, v/v), and injected into the mass spectrometry part. The injection needle was washed with ultrapure water (500 millisecond) and acetonitrile (500 millisecond) to minimize carry-over. […] The RapidFire300 system was controlled by RapidFire UI software version 3.6 (Agilent Technologies, Inc.).
The mass spectrometry of the resultant product was performed using API4000™ triple quadrupole mass spectrometer (AB SCIEX) equipped with an electrospray ion sauce (TurboIon Spray™) in a negative selected reaction monitoring (SRM) mode. The conditions of SRM are shown below. The parameters of the instrument were optimized as follows: capillary temperature 600° C., ion spray voltage −4.5 kV, collision gas 8, curtain gas 15 psi, ion source gas 1 60 psi, ion source gas 2 60 psi. The mass spectrometer was controlled by Analyst™ software version 1.5.1 (AB SCIEX). The peak area integration was analyzed using RapidFire integrator software version 3.6 (Agilent Technologies, Inc.).
MAGL inhibitory rate (%) was calculated according to the following calculation formula. (1-(arachidonic acid production amount of test compound addition group−arachidonic acid production amount of enzyme-free group)÷(arachidonic acid production amount of test compound-free group−arachidonic acid production amount of enzyme-free group))×100

| Compound | inhibition at 10 µM |
| --- | --- |
| O=C1NC2(CO1)CN(C(=O)c1ccc(-c3cccc(C4(C(F)(F)F)CC4)c3)cc1)C2 [Example 344, 2-((3′-(1-(trifluoromethyl)cyclopropyl)biphenyl-4-yl)carbonyl)-7-oxa-2,5-diazaspiro[3.4]octan-6-one] | 99% |
| O=C1CCC2(CN(C(=O)c3ccc(-c4c(F)cccc4F)cc3)C2)N1 [Example 76, 2-((2′,6′-difluorobiphenyl-4-yl)carbonyl)-2,5-diazaspiro[3.4]octan-6-one] | 85% |
| O=C1CCC2(CN(C(=O)N3CCC(COc4ccc5c(c4)CCCC5)CC3)C2)N1 [Example 239, 2-((4-((5,6,7,8-tetrahydronaphthalen-2-yloxy)methyl)piperidin-1-yl)carbonyl)-2,5-diazaspiro[3.4]octan-6-one] | 101% |
| Cc1cc(C(=O)N2CC3(CCC(=O)N3)C2)ccc1-c1ccccc1 [Example 118, 2-((2-methylbiphenyl-4-yl)carbonyl)-2,5-diazaspiro[3.4]octan-6-one] | 87% |
| Cc1ccc(-c2ccc3c(Cl)c(C(=O)N4CC5(CCC(=O)N5)C4)sc3c2)cc1F [Example 206, 2-((3-chloro-6-(3-fluoro-4-methylphenyl)-1-benzothiophen-2-yl)carbonyl)-2,5-diazaspiro[3.4]octan-6-one] | 96% |
| O=C1CCC2(CN(C(=O)c3ccc4nc(-c5ccc(F)cc5)oc4c3)C2)N1 [Example 13, 2-((2-(4-fluorophenyl)-1,3-benzoxazol-6-yl)carbonyl)-2,5-diazaspiro[3.4]octan-6-one] | 89% |
| Cc1cc(CO[C@H]2C[C@@H](C(=O)N3CC4(COC(=O)N4)C3)C2)ccc1Cl [Example 357, 2-((cis-3-((4-chloro-3-methylbenzyl)oxy)cyclobutyl)carbonyl)-7-oxa-2,5-diazaspiro[3.4]octan-6-one] | 100% |
| O=C1CCC2(CN(C(=O)c3sc4cc(-c5c(F)cccc5Cl)ccc4c3Cl)C2)N1 [Example 221, 2-((3-chloro-6-(2-chloro-6-fluorophenyl)-1-benzothiophen-2-yl)carbonyl)-2,5-diazaspiro[3.4]octan-6-one] | 100% |
| O=C1NC2(CO1)CN(C(=O)N1CCC(COc3ccc(F)cc3Cl)CC1)C2 [Example 240, 2-((4-((2-chloro-4-fluorophenoxy)methyl)piperidin-1-yl)carbonyl)-7-oxa-2,5-diazaspiro[3.4]octan-6-one] | 100% |
| O=C1CCC2(CN(C(=O)c3sc4cc(-c5ccc(OC(F)(F)F)cc5)ccc4c3Cl)C2)N1 [Example 200, 2-((3-chloro-6-(4-(trifluoromethoxy)phenyl)-1-benzothiophen-2-yl)carbonyl)-2,5-diazaspiro[3.4]octan-6-one] | 94% |
| O=C1NC2(CO1)CN(C(=O)c1sc3c(Cl)c(OC(F)F)cc(F)c3c1Cl)C2 [Example 303, 2-((3,7-dichloro-6-(difluoromethoxy)-4-fluoro-1-benzothiophen-2-yl)carbonyl)-7-oxa-2,5-diazaspiro[3.4]octan-6-one] | 100% |
| O=C1CCC2(CN(C(=O)c3ccc(-c4cccc(OCC5CC5)c4)cc3)C2)N1 [Example 171, 2-((3′-(cyclopropylmethoxy)biphenyl-4-yl)carbonyl)-2,5-diazaspiro[3.4]octan-6-one] | 98% |
| Cc1cc(F)ccc1-c1ccc(OCC2CN(C(=O)N3CC4(CCC(=O)N4)C3)C2)c(F)c1 [Example 23, 2-((3-(((3,4′-difluoro-2′-methylbiphenyl-4-yl)oxy)methyl)azetidin-1-yl)carbonyl)-2,5-diazaspiro[3.4]octan-6-one] | 102% |
| O=C1CCC2(CN(C(=O)c3sc4cc(-c5cccc(Cl)c5)ccc4c3Cl)C2)N1 [Example 190, 2-((3-chloro-6-(3-chlorophenyl)-1-benzothiophen-2-yl)carbonyl)-2,5-diazaspiro[3.4]octan-6-one] | 99% |
| O=C1CCC2(CN(C(=O)c3ccc(-c4coc5ccccc45)cc3)C2)N1 [Example 66, 2-(4-(1-benzofuran-3-yl)benzoyl)-2,5-diazaspiro[3.4]octan-6-one] | 98% |
| COc1ccc(Cl)c(-c2ccc(C(=O)N3CC4(CCC(=O)N4)C3)cc2)c1 [Example 82, 2-((2′-chloro-5′-methoxybiphenyl-4-yl)carbonyl)-2,5-diazaspiro[3.4]octan-6-one] | 93% |
| CC(Oc1ccc(F)cc1Cl)C1CCN(C(=O)N2CC3(CCC(=O)N3)C2)CC1 (centres unmarked) [Example 7, 2-((4-(1-(2-chloro-4-fluorophenoxy)ethyl)piperidin-1-yl)carbonyl)-2,5-diazaspiro[3.4]octan-6-one] | 103% |
| Cc1cccc(-c2ccc(C(=O)N3CC4(CCC(=O)N4)C3)cc2)c1C [Example 89, 2-((2′,3′-dimethylbiphenyl-4-yl)carbonyl)-2,5-diazaspiro[3.4]octan-6-one] | 96% |

Results, then the molecule that gave them:

| inhibition at 10 µM | Compound |
| --- | --- |
| 101% | O=C1NC2(CO1)CN(C(=O)c1sc3cccc(OC(F)(F)F)c3c1Cl)C2 [Example 266, 2-((3-chloro-4-(trifluoromethoxy)-1-benzothiophen-2-yl)carbonyl)-7-oxa-2,5-diazaspiro[3.4]octan-6-one] |
| 101% | O=C1NC2(CO1)CN(C(=O)c1sc3c(C(F)F)c(OC(F)(F)F)ccc3c1Cl)C2 [Example 302, 2-((3-chloro-7-(difluoromethyl)-6-(trifluoromethoxy)-1-benzothiophen-2-yl)carbonyl)-7-oxa-2,5-diazaspiro[3.4]octan-6-one] |
| 99% | O=C1CCC2(CN(C(=O)c3sc4cc(OC(F)(F)F)ccc4c3Cl)C2)N1 [Example 176, 2-((3-chloro-6-(trifluoromethoxy)-1-benzothiophen-2-yl)carbonyl)-2,5-diazaspiro[3.4]octan-6-one] |
| 101% | Cc1cc2c(Cl)c(C(=O)N3CC4(COC(=O)N4)C3)sc2cc1OC(F)(F)F [Example 295, 2-((3-chloro-5-methyl-6-(trifluoromethoxy)-1-benzothiophen-2-yl)carbonyl)-7-oxa-2,5-diazaspiro[3.4]octan-6-one] |
| 100% | O=C1NC2(CO1)CN(C(=O)c1sc3cc(OC(F)(F)F)c(C(F)F)cc3c1Cl)C2 [Example 306, 2-((3-chloro-5-(difluoromethyl)-6-(trifluoromethoxy)-1-benzothiophen-2-yl)carbonyl)-7-oxa-2,5-diazaspiro[3.4]octan-6-one] |
| 100% | O=C1NC2(CCN(C(=O)c3sc4cc(C(F)(F)F)ccc4c3Cl)C2)CO1 (centres unmarked) [Example 365, 7-((3-chloro-6-(trifluoromethyl)-1-benzothiophen-2-yl)carbonyl)-3-oxa-1,7-diazaspiro[4.4]nonan-2-one] |
| 100% | O=C1NC2(CO1)CN(C(=O)c1sc3cc(-c4c(F)cccc4F)ccc3c1Cl)C2 [Example 345, 2-((3-chloro-6-(2,6-difluorophenyl)-1-benzothiophen-2-yl)carbonyl)-7-oxa-2,5-diazaspiro[3.4]octan-6-one] |
| 100% | O=C1NC2(CO1)CN(C(=O)c1sc3c(Cl)ccc(OC(F)(F)F)c3c1Cl)C2 [Example 297, 2-((3,7-dichloro-4-(trifluoromethoxy)-1-benzothiophen-2-yl)carbonyl)-7-oxa-2,5-diazaspiro[3.4]octan-6-one] |
